Clc1ccccc1C(c1ccccc1)(c1ccccc1)n1ccnc1
Settings | solubility (mole fraction)
in ethyl acetate, 283.11 K | 0.00714
in ethyl acetate, 288.17 K | 0.00838
in ethyl acetate, 293.24 K | 0.01
in ethyl acetate, 298.15 K | 0.0119
in ethyl acetate, 303.14 K | 0.0142
in ethyl acetate, 308.18 K | 0.0168
in ethyl acetate, 313.12 K | 0.0198
in ethyl acetate, 318.16 K | 0.0233
in ethyl acetate, 323.19 K | 0.0275
in isobutanol, 283.09 K | 0.0157
in isobutanol, 288.15 K | 0.0202
in isobutanol, 293.11 K | 0.0251
in isobutanol, 298.17 K | 0.0311
in isobutanol, 303.16 K | 0.0385
in isobutanol, 308.21 K | 0.0477
in isobutanol, 313.15 K | 0.0589
in isobutanol, 318.14 K | 0.0722
in isobutanol, 323.18 K | 0.0873
in isopentanol, 283.13 K | 0.0157
in isopentanol, 288.18 K | 0.0193
in isopentanol, 293.14 K | 0.0239
in isopentanol, 298.16 K | 0.0296
in isopentanol, 303.13 K | 0.0366
in isopentanol, 308.18 K | 0.045
in isopentanol, 313.12 K | 0.0548
in isopentanol, 318.15 K | 0.0668
in isopentanol, 323.19 K | 0.081
in isopropanol, 283.1 K | 0.00571
in isopropanol, 288.15 K | 0.00723
in isopropanol, 293.13 K | 0.00916
in isopropanol, 298.16 K | 0.0115
in isopropanol, 303.12 K | 0.0145
in isopropanol, 308.15 K | 0.0185
in isopropanol, 313.19 K | 0.0235
in isopropanol, 318.16 K | 0.03
in isopropanol, 323.15 K | 0.0384
in isopropyl acetate, 283.1 K | 0.00518
in isopropyl acetate, 288.16 K | 0.00615
in isopropyl acetate, 293.2 K | 0.0073
in isopropyl acetate, 298.19 K | 0.00868
in isopropyl acetate, 303.15 K | 0.0102
in isopropyl acetate, 308.12 K | 0.0121
in isopropyl acetate, 313.15 K | 0.0144
in isopropyl acetate, 318.19 K | 0.0171
in isopropyl acetate, 323.17 K | 0.0203
in methyl acetate, 283.15 K | 0.00661
in methyl acetate, 288.17 K | 0.00792
in methyl acetate, 293.1 K | 0.00953
in methyl acetate, 298.21 K | 0.0114
in methyl acetate, 303.15 K | 0.0137
in methyl acetate, 308.16 K | 0.0164
in methyl acetate, 313.12 K | 0.0196
in methyl acetate, 318.14 K | 0.0235
in methyl acetate, 323.18 K | 0.0281
in methyl propionate, 283.13 K | 0.00984
in methyl propionate, 288.17 K | 0.0117
in methyl propionate, 293.21 K | 0.0138
in methyl propionate, 298.15 K | 0.0163
in methyl propionate, 303.14 K | 0.0192
in methyl propionate, 308.17 K | 0.0227
in methyl propionate, 313.08 K | 0.0268
in methyl propionate, 318.19 K | 0.0316
in methyl propionate, 323.15 K | 0.0373
in n-butanol, 283.16 K | 0.0151
in n-butanol, 288.11 K | 0.0188
in n-butanol, 293.15 K | 0.0235
in n-butanol, 298.2 K | 0.0289
in n-butanol, 303.14 K | 0.0356
in n-butanol, 308.18 K | 0.0439
in n-butanol, 313.15 K | 0.0538
in n-butanol, 318.17 K | 0.0659
in n-butanol, 323.16 K | 0.0798
in n-butyl acetate, 283.16 K | 0.00743
in n-butyl acetate, 288.19 K | 0.00886
in n-butyl acetate, 293.14 K | 0.0104
in n-butyl acetate, 298.16 K | 0.0124
in n-butyl acetate, 303.11 K | 0.0148
in n-butyl acetate, 308.09 K | 0.0176
in n-butyl acetate, 313.25 K | 0.0211
in n-butyl acetate, 318.15 K | 0.0251
in n-butyl acetate, 323.13 K | 0.0299
in n-heptanol, 283.17 K | 0.0108
in n-heptanol, 288.14 K | 0.0151
in n-heptanol, 293.18 K | 0.0198
in n-heptanol, 298.16 K | 0.0251
in n-heptanol, 303.1 K | 0.0316
in n-heptanol, 308.15 K | 0.039
in n-heptanol, 313.19 K | 0.0474
in n-heptanol, 318.08 K | 0.0578
in n-heptanol, 323.16 K | 0.0695
in n-hexanol, 283.08 K | 0.0145
in n-hexanol, 288.13 K | 0.0185
in n-hexanol, 293.16 K | 0.0231
in n-hexanol, 298.15 K | 0.0287
in n-hexanol, 303.19 K | 0.0356
in n-hexanol, 308.14 K | 0.0432
in n-hexanol, 313.1 K | 0.053
in n-hexanol, 318.21 K | 0.064
in n-hexanol, 323.17 K | 0.0769
in n-octanol, 283.06 K | 0.0118
in n-octanol, 288.15 K | 0.0159
in n-octanol, 293.13 K | 0.0203
in n-octanol, 298.19 K | 0.0247
in n-octanol, 303.11 K | 0.0301
in n-octanol, 308.22 K | 0.0366
in n-octanol, 313.18 K | 0.0453
in n-octanol, 318.09 K | 0.0553
in n-octanol, 323.17 K | 0.0661
in n-pentanol, 283.19 K | 0.0169
in n-pentanol, 288.15 K | 0.0213
in n-pentanol, 293.13 K | 0.0269
in n-pentanol, 298.1 K | 0.0325
in n-pentanol, 303.12 K | 0.04
in n-pentanol, 308.15 K | 0.0486
in n-pentanol, 313.07 K | 0.0587
in n-pentanol, 318.14 K | 0.0707
in n-pentanol, 323.17 K | 0.085
in n-propanol, 283.15 K | 0.0144
in n-propanol, 288.12 K | 0.0172
in n-propanol, 293.14 K | 0.0213
in n-propanol, 298.18 K | 0.0263
in n-propanol, 303.16 K | 0.0327
in n-propanol, 308.15 K | 0.0405
in n-propanol, 313.11 K | 0.05
in n-propanol, 318.17 K | 0.0618
in n-propanol, 323.18 K | 0.0761
in n-propyl acetate, 283.15 K | 0.008
in n-propyl acetate, 288.14 K | 0.0095
in n-propyl acetate, 293.19 K | 0.0112
in n-propyl acetate, 298.17 K | 0.0132
in n-propyl acetate, 303.16 K | 0.0156
in n-propyl acetate, 308.12 K | 0.0185
in n-propyl acetate, 313.21 K | 0.0217
in n-propyl acetate, 318.15 K | 0.0257
in n-propyl acetate, 323.13 K | 0.0303
in sec-butanol, 283.15 K | 0.0101
in sec-butanol, 288.16 K | 0.013
in sec-butanol, 293.21 K | 0.0165
in sec-butanol, 298.18 K | 0.021
in sec-butanol, 303.13 K | 0.0267
in sec-butanol, 308.15 K | 0.0338
in sec-butanol, 313.19 K | 0.0425
in sec-butanol, 318.11 K | 0.0532
in sec-butanol, 323.14 K | 0.0657
